Experiments:
mouse DGAT1 = target: T1, mouse DGAT1 (Mus musculus, UniProt Q9Z2A7); assay: DGAT1 inhibitory effect test (microsome fraction, [14C]-oleoyl-CoA, triglyceride radioactivity by TLC); type: biochemical; conditions: 0.5 h; concentration of the test compound 0.1 μg/ml; mouse DGAT1 microsomes, 23° C., 30 minutes; read-out: Inhibitory ratio
T1 construct: made in house; host or cells: insect cells (High Five, Sf9, Sf21, etc.), baculovirus expression system (Invitrogen)
T1 sequence (Q9Z2A7 1-498): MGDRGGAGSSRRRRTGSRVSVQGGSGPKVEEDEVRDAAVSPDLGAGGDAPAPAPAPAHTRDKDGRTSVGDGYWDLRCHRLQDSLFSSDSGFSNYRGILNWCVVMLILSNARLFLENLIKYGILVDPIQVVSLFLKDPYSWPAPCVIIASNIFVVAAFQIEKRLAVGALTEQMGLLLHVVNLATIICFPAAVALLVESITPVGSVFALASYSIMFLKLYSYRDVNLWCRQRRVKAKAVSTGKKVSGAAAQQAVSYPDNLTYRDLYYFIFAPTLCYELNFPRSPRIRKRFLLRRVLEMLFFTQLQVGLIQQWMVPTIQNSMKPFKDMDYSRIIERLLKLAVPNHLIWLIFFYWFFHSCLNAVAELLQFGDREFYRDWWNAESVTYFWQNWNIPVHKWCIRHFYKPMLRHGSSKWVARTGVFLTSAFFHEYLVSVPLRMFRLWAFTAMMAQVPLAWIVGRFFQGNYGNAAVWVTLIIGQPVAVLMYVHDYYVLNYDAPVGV
Summary of the method: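 Baculovirus-expressed mouse DGAT1 insect-cell microsomes (10 μg) were incubated 30 min at 23 °C, pH 8.0, with 0.5 mM 1,2-dioleoyl-sn-glycerol, 30 μM [14C]-oleoyl-CoA and 0.5% Triton X-100. [14C]-triglyceride was quantified after heptane extraction and TLC. Percent inhibition was taken against vehicle control, with 0-min background subtracted.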

Row | SMILES | melting point [°C] | inhibition at 0.1 µg/mL (mouse DGAT1) [%]
1 | COc1cc(NC(=O)Nc2ccc(C3=CCN(C(=O)Nc4ccc(OCCO)cc4Cl)CC3)cc2)cc(OC)c1 [Example 259, 4-{4-[3-(3,5-dimethoxy-phenyl)-ureido]-phenyl}-3,6-dihydro-2H-pyridine-1-carboxylic acid [2-chloro-4-(2-hydroxy-ethoxy)-phenyl]-amide] | 135 to 139 | ≥ 50
2 | O=C(Nc1ccc(C2=CCN(C(=O)Nc3ccc(OCCO)cc3Cl)CC2)cc1)Nc1ccccc1F [Example 260, 4-{4-[3-(2-fluoro-phenyl)-ureido]-phenyl}-3,6-dihydro-2H-pyridine-1-carboxylic acid [2-chloro-4-(2-hydroxy-ethoxy)-phenyl]-amide] | 173 to 178 | ≥ 50
3 | COc1cc(NC(=O)Nc2ccc(C3CCN(C(=O)Nc4ccc(OCCO)cc4Cl)CC3)cc2)cc(OC)c1 [Example 262, 4-{4-[3-(3,5-dimethoxy-phenyl)-ureido]-phenyl}-piperidine-1-carboxylic acid [2-chloro-4-(2-hydroxy-ethoxy)-phenyl]-amide] | 101 to 105 | ≥ 50
4 | CCOc1cccc(NC(=O)Nc2ccc(C3CCN(C(=O)Nc4ccc(OCCO)cc4Cl)CC3)cc2)c1 [Example 264, 4-{4-[3-(3-ethoxy-phenyl)-ureido]-phenyl}-piperidine-1-carboxylic acid [2-chloro-4-(2-hydroxy-ethoxy)-phenyl]-amide] | 129 to 134 | ≥ 50
5 | COc1cc(NC(=O)Nc2ccc3c(c2)CCN(C(=O)Nc2ccc(OCCO)cc2Cl)C3)cc(OC)c1 [Example 266, 6-[3-(3,5-dimethoxy-phenyl)-ureido]-3,4-dihydro-1H-isoquinoline-2-carboxylic acid [2-chloro-4-(2-hydroxy-ethoxy)-phenyl]-amide] | 105 to 110 | ≥ 50
6 | COc1ccc(C)cc1NC(=O)Nc1ccc(C2=CCN(C(=O)Nc3cc(OCCO)ccc3Cl)CC2)cc1 [Example 273, 4-{4-[3-(2-methoxy-5-methyl-phenyl)-ureido]-phenyl}-3,6-dihydro-2H-pyridine-1-carboxylic acid [2-chloro-5-(2-hydroxy-ethoxy)-phenyl]-amide] | 139 to 142 | ≥ 50
7 | COc1ccc(C)cc1NC(=O)Nc1ccc(C2CCN(C(=O)Nc3cc(OCCO)ccc3Cl)CC2)cc1 [Example 274, 4-{4-[3-(2-methoxy-5-methyl-phenyl)-ureido]-phenyl}-piperidine-1-carboxylic acid [2-chloro-5-(2-hydroxy-ethoxy)-phenyl]-amide] | 202 to 205 | ≥ 50
8 | COc1ccc(C)cc1NC(=O)Nc1ccc(N2CCN(C(=O)Nc3ccc(OCC(O)CO)cc3C(F)(F)F)CC2)cc1 (stereo not shown) [Example 275, 4-{4-[3-(2-methoxy-5-methyl-phenyl)-ureido]-phenyl}-piperazine-1-carboxylic acid [4-(2,3-dihydroxy-propoxy)-2-trifluoromethyl-phenyl]-amide] | 187 to 190 | ≥ 50
9 | COc1ccc(C)cc1NC(=O)Nc1ccc(N2CCN(C(=O)Nc3ccc(OCC(O)CO)cc3C)CC2)cc1 (stereo not shown) [Example 276, 4-{4-[3-(2-methoxy-5-methyl-phenyl)-ureido]-phenyl}-piperazine-1-carboxylic acid [4-(2,3-dihydroxy-propoxy)-2-methyl-phenyl]-amide] | 148 to 150 | ≥ 50
10 | COc1ccc(F)cc1NC(=O)Nc1ccc(N2CCN(C(=O)Nc3ccc(OCC(O)CO)cc3C(F)(F)F)CC2)nc1 (stereo not shown) [Example 279, 4-{5-[3-(5-fluoro-2-methoxy-phenyl)-ureido]-pyridin-2-yl}-piperazine-1-carboxylic acid [4-(2,3-dihydroxy-propoxy)-2-trifluoromethyl-phenyl]-amide] | 195 | ≥ 50

The next lines start with the values.

Row | melting point [°C] | inhibition at 0.1 µg/mL (mouse DGAT1) [%] | SMILES
11 | 134 to 137 | ≥ 50 | COc1ccc(C)cc1NC(=O)Nc1ccc(C2CCN(C(=O)Nc3ccc(OCCO)cc3Cl)CC2)cc1 [Example 257, 4-{4-[3-(2-methoxy-5-methyl-phenyl)-ureido]-phenyl}-piperidine-1-carboxylic acid [2-chloro-4-(2-hydroxy-ethoxy)-phenyl]-amide]
12 | 120 to 125 | ≥ 50 | COc1ccccc1NC(=O)Nc1ccc(C2=CCN(C(=O)Nc3ccc(OCCO)cc3Cl)CC2)cc1 [Example 258, 4-{4-[3-(2-methoxy-phenyl)-ureido]-phenyl}-3,6-dihydro-2H-pyridine-1-carboxylic acid [2-chloro-4-(2-hydroxy-ethoxy)-phenyl]-amide]
13 | 166 to 168 | ≥ 50 | COc1ccccc1NC(=O)Nc1ccc(C2CCN(C(=O)Nc3ccc(OCCO)cc3Cl)CC2)cc1 [Example 261, 4-{4-[3-(2-methoxy-phenyl)-ureido]-phenyl}-piperidine-1-carboxylic acid [2-chloro-4-(2-hydroxy-ethoxy)-phenyl]-amide]
14 | 166 to 171 | ≥ 50 | O=C(Nc1ccc(C2CCN(C(=O)Nc3ccc(OCCO)cc3Cl)CC2)cc1)Nc1ccccc1F [Example 263, 4-{4-[3-(2-fluoro-phenyl)-ureido]-phenyl}-piperidine-1-carboxylic acid [2-chloro-4-(2-hydroxy-ethoxy)-phenyl]-amide]
15 | 130 to 135 | ≥ 50 | COc1ccccc1NC(=O)Nc1ccc2c(c1)CCN(C(=O)Nc1ccc(OCCO)cc1Cl)C2 [Example 265, 6-[3-(2-methoxy-phenyl)-ureido]-3,4-dihydro-1 H-isoquinoline-2-carboxylic acid [2-chloro-4-(2-hydroxy-ethoxy)-phenyl]-amide]
16 | 183 to 186 | ≥ 50 | O=C(Nc1ccc2c(c1)CCN(C(=O)Nc1ccc(OCCO)cc1Cl)C2)Nc1ccccc1F [Example 267, 6-[3-(2-fluoro-phenyl)-ureido]-3,4-dihydro-1H-isoquinoline-2-carboxylic acid [2-chloro-4-(2-hydroxy-ethoxy)-phenyl]-amide]
17 | 196 to 197 | ≥ 50 | COc1ccc(C)cc1NC(=O)Nc1ccc(N2CCN(C(=O)Nc3ccc(OCCO)cc3Cl)CC2)nc1 [Example 268, 4-{5-[3-(2-methoxy-5-methyl-phenyl)-ureido]-pyridin-2-yl}-piperazine-1-carboxylic acid [2-chloro-4-(2-hydroxy-ethoxy)-phenyl]-amide]
18 | 173 to 175 | ≥ 50 | COc1ccccc1NC(=O)Nc1ccc(N2CCN(C(=O)Nc3ccc(OCCO)cc3Cl)CC2)c(Cl)c1 [Example 269, 4-{2-chloro-4-[3-(2-methoxy-phenyl)-ureido]-phenyl}-piperazine-1-carboxylic acid [2-chloro-4-(2-hydroxy-ethoxy)-phenyl]-amide]
19 | 215 to 216 | ≥ 50 | COc1cccnc1NC(=O)Nc1ccc(N2CCN(C(=O)Nc3ccc(OCCO)cc3Cl)CC2)cc1 [Example 270, 4-{4-[3-(3-methoxy-pyridin-2-yl)-ureido]-phenyl}-piperazine-1-carboxylic acid [2-chloro-4-(2-hydroxy-ethoxy)-phenyl]-amide]
20 | 184 to 185 | ≥ 50 | Cc1nc(NC(=O)Nc2ccc(N3CCN(C(=O)Nc4ccc(OCCO)cc4Cl)CC3)nc2)sc1C [Example 271, 4-{5-[3-(4,5-dimethyl-thiazol-2-yl)-ureido]-pyridin-2-yl}-piperazine-1-carboxylic acid [2-chloro-4-(2-hydroxy-ethoxy)-phenyl]-amide]
21 | 186 to 187 | ≥ 50 | Cc1nc(NC(=O)Nc2ccc(N3CCN(C(=O)Nc4ccc(OCCO)cc4Cl)CC3)cc2)sc1C [Example 272, 4-{4-[3-(4,5-dimethyl-thiazol-2-yl)-ureido]-phenyl}-piperazine-1-carboxylic acid [2-chloro-4-(2-hydroxy-ethoxy)-phenyl]-amide]
22 | 134 to 136 | ≥ 50 | COc1ccc(C)cc1NC(=O)Nc1ccc(N2CCN(C(=O)Nc3ccc(OCC(O)CO)cc3Cl)CC2)cc1 (stereo not shown) [Example 277, 4-{4-[3-(2-methoxy-5-methyl-phenyl)-ureido]-phenyl}-piperazine-1-carboxylic acid [2-chloro-4-(2,3-dihydroxy-propoxy)-phenyl]-amide]
23 | 189 to 190 | ≥ 50 | O=C(Nc1ccc(N2CCN(C(=O)Nc3ccc(OCC(O)CO)cc3Cl)CC2)cc1)Nc1ccccc1F (stereo not shown) [Example 278, 4-{4-[3-(2-fluoro-phenyl)-ureido]-phenyl}-piperazine-1-carboxylic acid [2-chloro-4-(2,3-dihydroxy-propoxy)-phenyl]-amide]
